Where two headings read alike, the source gives them in different places.
Tests used:
[1] = not given; remark: listed apart in the source

Mole fraction solubility (DES betaine + TEG 1:2, x*DES 1.0, 25°C): 0.3209±0.0024 mole fraction
Mole fraction solubility (DES betaine + TEG 1:2, x*DES 1.0, 30°C): 0.3830±0.0062 mole fraction
Mole fraction solubility (DES betaine + TEG 1:2, x*DES 1.0, 35°C): 0.4548±0.0069 mole fraction
Mole fraction solubility (DES betaine + TEG 1:2, x*DES 1.0, 40°C): 0.5444±0.0067 mole fraction
Mole fraction solubility (DES choline chloride + TEG 1:2, x*DES 1.0, 25°C): 0.3528±0.0029 mole fraction
Mole fraction solubility (DES choline chloride + TEG 1:2, x*DES 1.0, 30°C): 0.4366±0.0077 mole fraction
Mole fraction solubility (DES choline chloride + TEG 1:2, x*DES 1.0, 35°C): 0.5483±0.0115 mole fraction
Mole fraction solubility (DES choline chloride + TEG 1:2, x*DES 1.0, 40°C): 0.6784±0.0040 mole fraction
Mole fraction solubility (aqueous DES betaine + TEG 1:2, x*DES 0.1, 25°C): 0.0396±0.0003 mole fraction
Mole fraction solubility (aqueous DES betaine + TEG 1:2, x*DES 0.1, 30°C): 0.0475±0.0007 mole fraction
Mole fraction solubility (aqueous DES betaine + TEG 1:2, x*DES 0.1, 35°C): 0.0561±0.0003 mole fraction
Mole fraction solubility (aqueous DES betaine + TEG 1:2, x*DES 0.1, 40°C): 0.0688±0.0013 mole fraction
Mole fraction solubility (aqueous DES betaine + TEG 1:2, x*DES 0.2, 25°C): 0.0911±0.0020 mole fraction
Mole fraction solubility (aqueous DES betaine + TEG 1:2, x*DES 0.2, 30°C): 0.1077±0.0009 mole fraction
Mole fraction solubility (aqueous DES betaine + TEG 1:2, x*DES 0.2, 35°C): 0.1301±0.0019 mole fraction
Mole fraction solubility (aqueous DES betaine + TEG 1:2, x*DES 0.2, 40°C): 0.1547±0.0024 mole fraction
Mole fraction solubility (aqueous DES betaine + TEG 1:2, x*DES 0.3, 25°C): 0.1423±0.0035 mole fraction
Mole fraction solubility (aqueous DES betaine + TEG 1:2, x*DES 0.3, 30°C): 0.1670±0.0021 mole fraction
Mole fraction solubility (aqueous DES betaine + TEG 1:2, x*DES 0.3, 35°C): 0.2005±0.0018 mole fraction
Mole fraction solubility (aqueous DES betaine + TEG 1:2, x*DES 0.3, 40°C): 0.2400±0.0050 mole fraction
Mole fraction solubility (aqueous DES betaine + TEG 1:2, x*DES 0.4, 25°C): 0.1950±0.0030 mole fraction
Mole fraction solubility (aqueous DES betaine + TEG 1:2, x*DES 0.4, 30°C): 0.2288±0.0034 mole fraction
Mole fraction solubility (aqueous DES betaine + TEG 1:2, x*DES 0.4, 35°C): 0.2772±0.0045 mole fraction
Mole fraction solubility (aqueous DES betaine + TEG 1:2, x*DES 0.4, 40°C): 0.3302±0.0064 mole fraction
Mole fraction solubility (aqueous DES betaine + TEG 1:2, x*DES 0.5, 25°C): 0.2459±0.0052 mole fraction
Mole fraction solubility (aqueous DES betaine + TEG 1:2, x*DES 0.5, 30°C): 0.2949±0.0045 mole fraction
Mole fraction solubility (aqueous DES betaine + TEG 1:2, x*DES 0.5, 35°C): 0.3502±0.0073 mole fraction
Mole fraction solubility (aqueous DES betaine + TEG 1:2, x*DES 0.5, 40°C): 0.4150±0.0056 mole fraction
Mole fraction solubility (aqueous DES betaine + TEG 1:2, x*DES 0.6, 25°C): 0.2941±0.0043 mole fraction
Mole fraction solubility (aqueous DES betaine + TEG 1:2, x*DES 0.6, 30°C): 0.3535±0.0052 mole fraction
Mole fraction solubility (aqueous DES betaine + TEG 1:2, x*DES 0.6, 35°C): 0.4213±0.0098 mole fraction
Mole fraction solubility (aqueous DES betaine + TEG 1:2, x*DES 0.6, 40°C): 0.5066±0.0066 mole fraction
Mole fraction solubility (aqueous DES betaine + TEG 1:2, x*DES 0.7, 25°C): 0.3409±0.0049 mole fraction
Mole fraction solubility (aqueous DES betaine + TEG 1:2, x*DES 0.7, 30°C): 0.4057±0.0067 mole fraction
Mole fraction solubility (aqueous DES betaine + TEG 1:2, x*DES 0.7, 35°C): 0.4779±0.0128 mole fraction
Mole fraction solubility (aqueous DES betaine + TEG 1:2, x*DES 0.7, 40°C): 0.5883±0.0063 mole fraction
Mole fraction solubility (aqueous DES betaine + TEG 1:2, x*DES 0.8, 25°C): 0.3800±0.0058 mole fraction
Mole fraction solubility (aqueous DES betaine + TEG 1:2, x*DES 0.8, 25°C, listed as IP): 0.380 mole fraction
Mole fraction solubility (aqueous DES betaine + TEG 1:2, x*DES 0.8, 30°C): 0.4493±0.0062 mole fraction
Mole fraction solubility (aqueous DES betaine + TEG 1:2, x*DES 0.8, 35°C): 0.5335±0.0056 mole fraction
Mole fraction solubility (aqueous DES betaine + TEG 1:2, x*DES 0.8, 40°C): 0.6375±0.0137 mole fraction
Mole fraction solubility (aqueous DES betaine + TEG 1:2, x*DES 0.9, 25°C): 0.3582±0.0053 mole fraction
Mole fraction solubility (aqueous DES betaine + TEG 1:2, x*DES 0.9, 30°C): 0.4279±0.0034 mole fraction
Mole fraction solubility (aqueous DES betaine + TEG 1:2, x*DES 0.9, 35°C): 0.5040±0.0073 mole fraction
Mole fraction solubility (aqueous DES betaine + TEG 1:2, x*DES 0.9, 40°C): 0.6012±0.0090 mole fraction
Mole fraction solubility (aqueous DES choline chloride + TEG 1:2, x*DES 0.1, 25°C): 0.0211±0.0003 mole fraction
Mole fraction solubility (aqueous DES choline chloride + TEG 1:2, x*DES 0.1, 30°C): 0.0257±0.0001 mole fraction
Mole fraction solubility (aqueous DES choline chloride + TEG 1:2, x*DES 0.1, 35°C): 0.0318±0.0006 mole fraction
Mole fraction solubility (aqueous DES choline chloride + TEG 1:2, x*DES 0.1, 40°C): 0.0386±0.0006 mole fraction
Mole fraction solubility (aqueous DES choline chloride + TEG 1:2, x*DES 0.2, 25°C): 0.0641±0.0005 mole fraction
Mole fraction solubility (aqueous DES choline chloride + TEG 1:2, x*DES 0.2, 30°C): 0.0783±0.0007 mole fraction
Mole fraction solubility (aqueous DES choline chloride + TEG 1:2, x*DES 0.2, 35°C): 0.0973±0.0012 mole fraction
Mole fraction solubility (aqueous DES choline chloride + TEG 1:2, x*DES 0.2, 40°C): 0.1210±0.0019 mole fraction
Mole fraction solubility (aqueous DES choline chloride + TEG 1:2, x*DES 0.3, 25°C): 0.1227±0.0023 mole fraction
Mole fraction solubility (aqueous DES choline chloride + TEG 1:2, x*DES 0.3, 30°C): 0.1520±0.0019 mole fraction
Mole fraction solubility (aqueous DES choline chloride + TEG 1:2, x*DES 0.3, 35°C): 0.1876±0.0024 mole fraction
Mole fraction solubility (aqueous DES choline chloride + TEG 1:2, x*DES 0.3, 40°C): 0.2338±0.0048 mole fraction
Mole fraction solubility (aqueous DES choline chloride + TEG 1:2, x*DES 0.4, 25°C): 0.1961±0.0021 mole fraction
Mole fraction solubility (aqueous DES choline chloride + TEG 1:2, x*DES 0.4, 30°C): 0.2424±0.0032 mole fraction
Mole fraction solubility (aqueous DES choline chloride + TEG 1:2, x*DES 0.4, 35°C): 0.2953±0.0062 mole fraction
Mole fraction solubility (aqueous DES choline chloride + TEG 1:2, x*DES 0.4, 40°C): 0.3695±0.005 mole fraction
Mole fraction solubility (aqueous DES choline chloride + TEG 1:2, x*DES 0.5, 25°C): 0.2548±0.0063 mole fraction
Mole fraction solubility (aqueous DES choline chloride + TEG 1:2, x*DES 0.5, 30°C): 0.3205±0.0083 mole fraction
Mole fraction solubility (aqueous DES choline chloride + TEG 1:2, x*DES 0.5, 35°C): 0.3919±0.0029 mole fraction
Mole fraction solubility (aqueous DES choline chloride + TEG 1:2, x*DES 0.5, 40°C): 0.4807±0.0064 mole fraction
Mole fraction solubility (aqueous DES choline chloride + TEG 1:2, x*DES 0.6, 25°C): 0.2992±0.0052 mole fraction
Mole fraction solubility (aqueous DES choline chloride + TEG 1:2, x*DES 0.6, 30°C): 0.3723±0.0052 mole fraction
Mole fraction solubility (aqueous DES choline chloride + TEG 1:2, x*DES 0.6, 35°C): 0.4667±0.0108 mole fraction
Mole fraction solubility (aqueous DES choline chloride + TEG 1:2, x*DES 0.6, 40°C): 0.5790±0.0052 mole fraction
Mole fraction solubility (aqueous DES choline chloride + TEG 1:2, x*DES 0.7, 25°C): 0.3351±0.0045 mole fraction
Mole fraction solubility (aqueous DES choline chloride + TEG 1:2, x*DES 0.7, 30°C): 0.4232±0.0081 mole fraction
Mole fraction solubility (aqueous DES choline chloride + TEG 1:2, x*DES 0.7, 35°C): 0.5264±0.0138 mole fraction
Mole fraction solubility (aqueous DES choline chloride + TEG 1:2, x*DES 0.7, 40°C): 0.6531±0.0080 mole fraction
Mole fraction solubility (aqueous DES choline chloride + TEG 1:2, x*DES 0.8, 25°C): 0.3673±0.0062 mole fraction
Mole fraction solubility (aqueous DES choline chloride + TEG 1:2, x*DES 0.8, 30°C): 0.4557±0.0051 mole fraction
Mole fraction solubility (aqueous DES choline chloride + TEG 1:2, x*DES 0.8, 35°C): 0.5712±0.0136 mole fraction
Mole fraction solubility (aqueous DES choline chloride + TEG 1:2, x*DES 0.8, 40°C): 0.7095±0.0082 mole fraction
Mole fraction solubility (aqueous DES choline chloride + TEG 1:2, x*DES 0.9, 25°C): 0.3754±0.0036 mole fraction
Mole fraction solubility (aqueous DES choline chloride + TEG 1:2, x*DES 0.9, 25°C, listed as IP): 0.375 mole fraction
Mole fraction solubility (aqueous DES choline chloride + TEG 1:2, x*DES 0.9, 30°C): 0.4619±0.0105 mole fraction
Mole fraction solubility (aqueous DES choline chloride + TEG 1:2, x*DES 0.9, 35°C): 0.5742±0.0073 mole fraction
Mole fraction solubility (aqueous DES choline chloride + TEG 1:2, x*DES 0.9, 40°C): 0.7138±0.0065 mole fraction
Mole fraction solubility ([1]; neat DES betaine-DEG 1:1, 25°C): 0.223±0.0026 mole fraction
Mole fraction solubility ([1]; neat DES betaine-GLY 1:2, 25°C, listed as IP): 0.297 mole fraction
Mole fraction solubility ([1]; neat DES betaine-P2D 1:1, 25°C): 0.1561±0.0027 mole fraction
Mole fraction solubility ([1]; neat DES betaine-P2D 1:2, 25°C): 0.1919±0.0023 mole fraction
Mole fraction solubility ([1]; neat DES betaine-P2D 1:4, 25°C): 0.2062±0.0014 mole fraction
Mole fraction solubility ([1]; neat DES betaine-TEG 1:2, 25°C, listed as IP): 0.321 mole fraction
Mole fraction solubility ([1]; neat DES choline chloride-B3D 1:1, 25°C): 0.1584±0.0030 mole fraction
Mole fraction solubility ([1]; neat DES choline chloride-B3D 1:4, 25°C): 0.1899±0.0025 mole fraction
Mole fraction solubility ([1]; neat DES choline chloride-ETG 1:1, 25°C): 0.2167±0.0034 mole fraction
Mole fraction solubility ([1]; neat DES choline chloride-ETG 1:2, 25°C): 0.3072±0.0025 mole fraction
Mole fraction solubility ([1]; neat DES choline chloride-ETG 1:4, 25°C): 0.2905±0.0061 mole fraction
Mole fraction solubility ([1]; neat DES choline chloride-GLY 1:1, 25°C): 0.2793±0.0019 mole fraction
Mole fraction solubility ([1]; neat DES choline chloride-GLY 1:2, 25°C): 0.3495±0.0031 mole fraction
Mole fraction solubility ([1]; neat DES choline chloride-GLY 1:2, 25°C, listed as IP): 0.349 mole fraction
Mole fraction solubility ([1]; neat DES choline chloride-GLY 1:4, 25°C): 0.3187±0.0038 mole fraction
Mole fraction solubility ([1]; neat DES choline chloride-P2D 1:1, 25°C): 0.1611±0.0024 mole fraction
Mole fraction solubility ([1]; neat DES choline chloride-P2D 1:2, 25°C): 0.2068±0.0046 mole fraction
Mole fraction solubility ([1]; neat DES choline chloride-TEG 1:2, 25°C, listed as IP): 0.353 mole fraction
SMILES: CC(C)Cc1ccc(C(C)C(=O)O)cc1 (racemic) [ibuprofen, (RS)-2-(4-(2-methylpropyl)phenyl)propanoic acid]

From article PMC11124057 (Molecules, 2024)
